Source: the Kinase Knowledgebase extract (Sharma et al. 2016)

Target: MAPK14 (human) (UniProt Q16539)
Assay: Inhibition of MAPK14 Kinase Activity

Sequence of MAPK14 (human) (Q16539 whole entry, looked up): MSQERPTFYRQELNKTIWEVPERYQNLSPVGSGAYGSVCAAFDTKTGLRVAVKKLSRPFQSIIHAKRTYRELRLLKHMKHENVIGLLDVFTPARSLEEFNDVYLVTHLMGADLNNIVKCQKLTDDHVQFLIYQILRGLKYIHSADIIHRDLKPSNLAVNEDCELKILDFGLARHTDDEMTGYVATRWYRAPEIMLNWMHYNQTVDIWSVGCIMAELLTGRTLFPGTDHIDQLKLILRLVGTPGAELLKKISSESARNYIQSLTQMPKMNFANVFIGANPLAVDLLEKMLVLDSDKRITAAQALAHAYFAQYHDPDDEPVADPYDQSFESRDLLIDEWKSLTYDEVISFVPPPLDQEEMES

Row | SMILES | IC50
1 | CN1CC[C@H](NC(=O)Nc2sc3c(ccc(=O)n3-c3ccccc3)c2C(=O)c2ccccc2)C1 | < 2000 nM
2 | Nc1sc2c(ccc(=O)n2-c2ccccc2)c1C(=O)c1ccccc1 | < 2000 nM
3 | O=C(c1ccccc1)c1c(NC(=O)[C@H]2CCCN2)sc2c1ccc(=O)n2-c1ccccc1 | < 2000 nM
4 | Cc1cccc(C(=O)c2c(C(=O)O)sc3c2ccc(=O)n3-c2ccccc2)c1 | < 2000 nM
5 | CN1CC(Nc2sc3c(ccc(=O)n3CC3CC3)c2C(=O)c2ccccc2)C1 | < 2000 nM
6 | O=C(c1ccccc1)c1c(NC(=O)C2CCNCC2)sc2c1ccc(=O)n2-c1ccccc1Cl | < 2000 nM
7 | CC(C)N1CC(Nc2sc3c(ccc(=O)n3-c3ccccc3)c2C(=O)c2ccccc2)C1 | < 2000 nM
8 | CN1CCN(C(=O)Nc2sc3c(ccc(=O)n3-c3ccccc3)c2C(=O)c2ccccc2)CC1 | < 2000 nM
9 | CCOC(=O)c1sc2c(ccc(=O)n2-c2ccccc2)c1C(=O)c1cccc(C)c1 | < 2000 nM
10 | CC(C)(CO)NC(=O)Nc1sc2c(ccc(=O)n2CC2CC2)c1C(=O)c1ccccc1 | < 2000 nM
11 | CC(=O)Nc1sc2c(ccc(=O)n2-c2ccccc2)c1C(=O)c1ccccc1C | < 2000 nM
12 | Cc1cccc(C(=O)c2csc3c2ccc(=O)n3-c2ccccc2)c1 | < 2000 nM
13 | CC(=O)Nc1sc2c(ccc(=O)n2-c2ccccc2)c1C(=O)c1ccc(F)c(Cl)c1 | < 2000 nM
14 | Nc1sc2c(ccc(=O)n2-c2ccccc2)c1C(=O)c1ccccc1OC(F)F | < 2000 nM
15 | Cc1cc(C(=O)c2c(NC3CCN(C(C)C)CC3)sc3c2ccc(=O)n3-c2ccccc2)ccc1F | < 2000 nM
16 | CN(C)C(=O)c1sc2c(ccc(=O)n2-c2ccccc2)c1C(=O)c1ccccc1 | < 2000 nM
17 | Cc1cc(C(=O)c2c(NC(=O)C3CCNCC3)sc3c2ccc(=O)n3-c2ccccc2)ccc1F | < 2000 nM
18 | Cc1cc(C(=O)c2c(N[C@H]3CCN(C)C3)sc3c2ccc(=O)n3-c2ccccc2)ccc1F | < 2000 nM
19 | Nc1sc2c(ccc(=O)n2-c2ccccc2)c1C(=O)c1ccc(OC(F)F)cc1 | < 2000 nM
20 | Cc1cc(C(=O)c2c(N)sc3c2ccc(=O)n3-c2ccccc2F)ccc1F | < 2000 nM
21 | CNC(=O)c1sc2c(ccc(=O)n2-c2ccccc2)c1C(=O)c1ccccc1 | < 2000 nM
22 | CN(C)c1sc2c(ccc(=O)n2-c2ccccc2)c1C(=O)c1ccccc1 | < 2000 nM
23 | CN(C)[C@@H]1CCN(C(=O)Nc2sc3c(ccc(=O)n3-c3ccccc3)c2C(=O)c2ccccc2)C1 | < 2000 nM
24 | CN1CC(Nc2sc3c(ccc(=O)n3-c3c(F)cccc3F)c2C(=O)c2ccccc2)C1 | < 2000 nM

Row | SMILES | IC50
25 | Cc1cccc(C(=O)c2c(NC(=O)N(C)C)sc3c2ccc(=O)n3-c2ccccc2)c1 | < 2000 nM
26 | CN(C)C(=O)CNc1sc2c(ccc(=O)n2-c2ccccc2)c1C(=O)c1ccccc1 | < 2000 nM
27 | CC(=O)Nc1sc2c(ccc(=O)n2-c2ccccc2)c1C(=O)c1ccccc1Cl | < 2000 nM
28 | Nc1sc2c(ccc(=O)n2-c2ccccc2)c1C(=O)c1cccc(C(F)(F)F)c1 | < 2000 nM
29 | NC(=O)CNc1sc2c(ccc(=O)n2-c2ccccc2)c1C(=O)c1ccccc1 | < 2000 nM
30 | CC(=O)Nc1sc2c(ccc(=O)n2-c2ccccc2)c1C(=O)c1cccc(C)c1 | < 2000 nM
31 | O=C(c1ccccc1)c1c(NC2CNC2)sc2c1ccc(=O)n2CC1CC1 | < 2000 nM
32 | CCOc1ccc(C(=O)c2c(N)sc3c2ccc(=O)n3-c2ccccc2)cc1C | < 2000 nM
33 | Cc1cc(C(=O)c2c(NC(=O)NCC(C)(C)O)sc3c2ccc(=O)n3CC2CC2)ccc1F | < 2000 nM
34 | Nc1sc2c(ccc(=O)n2-c2ccccc2F)c1C(=O)c1ccccc1 | < 2000 nM
35 | NC(=O)c1sc2c(ccc(=O)n2-c2ccccc2)c1C(=O)c1ccccc1 | < 2000 nM
36 | Nc1sc2c(ccc(=O)n2-c2ccccc2)c1C(=O)c1ccccc1OC(F)(F)F | < 2000 nM
37 | Cc1ccc(-n2c(=O)ccc3c(C(=O)c4ccccc4)c(N)sc32)cc1 | < 2000 nM
38 | O=C(c1ccccc1)c1c(N[C@@H]2CCNC2)sc2c1ccc(=O)n2-c1ccccc1 | < 2000 nM
39 | N#Cc1sc2c(ccc(=O)n2-c2ccccc2)c1C(=O)c1ccccc1 | < 2000 nM
40 | O=C(c1ccccc1)c1csc2c1ccc(=O)n2-c1ccccc1 | < 2000 nM
41 | Cc1cc(C(=O)c2c(NC(=O)NC(C)(C)CO)sc3c2ccc(=O)n3CC2CC2)ccc1F | < 2000 nM
42 | Cc1cccc(C(=O)c2c(N)sc3c2ccc(=O)n3-c2ccccc2)n1 | < 2000 nM
43 | Cc1cccc(C(=O)c2c(NC3CCN(C)CC3)sc3c2ccc(=O)n3-c2ccccc2)c1 | < 2000 nM
44 | CCOC(=O)c1sc2c(ccc(=O)n2-c2ccccc2)c1C(=O)c1cccc(Cl)c1 | < 2000 nM
45 | CC(C)(O)CNC(=O)Nc1sc2c(ccc(=O)n2-c2ccccc2Cl)c1C(=O)c1ccccc1 | < 2000 nM
46 | Cc1cccc(C(=O)c2c(N3CCC3)sc3c2ccc(=O)n3-c2ccccc2)c1 | < 2000 nM
47 | CC(=O)Nc1sc2c(ccc(=O)n2-c2ccccc2F)c1C(=O)c1ccccc1 | < 2000 nM
48 | O=C(c1ccccc1)c1c(C(=O)N2CCC2)sc2c1ccc(=O)n2-c1ccccc1 | < 2000 nM

Next, values leading:

Row | IC50 | SMILES
49 | < 2000 nM | CN(C)c1ccc(-n2c(=O)ccc3c(C(=O)c4ccccc4)c(N)sc32)cn1
50 | < 2000 nM | Nc1sc2c(ccc(=O)n2-c2ccc(F)cc2)c1C(=O)c1ccccc1
51 | < 2000 nM | COc1cccc(C(=O)c2c(N)sc3c2ccc(=O)n3-c2ccccc2)c1
52 | < 2000 nM | CCN1CCC(Nc2sc3c(ccc(=O)n3-c3ccccc3)c2C(=O)c2ccc(F)c(C)c2)CC1
53 | < 2000 nM | CC(=O)Nc1sc2c(ccc(=O)n2-c2ccccc2F)c1C(=O)c1cccc(C)c1
54 | < 2000 nM | O=C(c1ccccc1)c1c(N2CC[C@@H](O)C2)sc2c1ccc(=O)n2-c1ccccc1
55 | < 2000 nM | CC(=O)Nc1sc2c(ccc(=O)n2-c2ccccc2Cl)c1C(=O)c1cccc(C)c1
56 | < 2000 nM | CCN1CC(Nc2sc3c(ccc(=O)n3-c3ccccc3)c2C(=O)c2ccc(F)c(C)c2)C1
57 | < 2000 nM | COc1ccc(C(=O)c2c(N)sc3c2ccc(=O)n3-c2ccccc2)cc1
58 | < 2000 nM | N#Cc1sc2c(ccc(=O)n2-c2ccccc2Cl)c1C(=O)c1ccccc1
59 | < 2000 nM | Cc1cccc(C(=O)c2c(NS(C)(=O)=O)sc3c2ccc(=O)n3-c2ccccc2)c1
60 | < 2000 nM | Nc1sc2c(ccc(=O)n2CC2CC2)c1C(=O)c1ccccc1
61 | < 2000 nM | CC(=O)Nc1sc2c(ccc(=O)n2-c2ccccc2)c1C(=O)c1cccc(C)n1
62 | < 2000 nM | CC(C)(CO)NC(=O)Nc1sc2c(ccc(=O)n2-c2ccccc2)c1C(=O)c1ccccc1
63 | < 2000 nM | CC(=O)Nc1sc2c(ccc(=O)n2-c2ccccc2)c1C(=O)c1ccc(F)c(C)c1
64 | < 2000 nM | COc1ccccc1C(=O)c1c(NC(C)=O)sc2c1ccc(=O)n2-c1ccccc1
65 | < 2000 nM | CN(C)[C@H]1CCN(c2sc3c(ccc(=O)n3-c3ccccc3)c2C(=O)c2ccccc2)C1
66 | < 2000 nM | Cc1cccc(C(=O)c2c(N[C@H]3CCNC3)sc3c2ccc(=O)n3-c2ccccc2)c1
67 | < 2000 nM | Cc1ccc(-n2c(=O)ccc3c(C(=O)c4ccccc4)c(NC4CN(C)C4)sc32)cc1
68 | < 2000 nM | Cc1cc(C(=O)c2c(NC(=O)C3CCN(C)CC3)sc3c2ccc(=O)n3-c2c(F)cccc2F)ccc1F
69 | < 2000 nM | Nc1sc2c(ccc(=O)n2-c2ccccc2)c1C(=O)c1cccc(Br)c1
70 | < 2000 nM | Nc1sc2c(ccc(=O)n2-c2ccccc2)c1C(=O)c1cccs1
71 | < 2000 nM | Cc1cc(C(=O)c2c(NC3CN(C(C)C)C3)sc3c2ccc(=O)n3-c2ccccc2)ccc1F
72 | < 2000 nM | CN1CCC(Nc2sc3c(ccc(=O)n3-c3ccccc3)c2C(=O)c2ccccc2)CC1
